Results on two molecules are retold here after US11453695B2, “Nucleoside analogues and methods of use thereof” (priority 2016, dated 2022).

For one series, the system named is HCMV/AD169. As to the kind of experiment: Antiviral effect, cytopathic effect (CPE) of HCMV in HFF cells. Type of series: cell-based, Human cytomegalovirus (HCMV). On the procedure: (§1) Table 4 presents results for Human cytomegalovirus (HCMV), which causes serious diseases in immune compromised hosts, particularly for transplantation recipient. Cytopathic effect (CPE) of A1-169 HMCV variant virus was measured using Human fibroblast cell lines (HFF). Cell titer were measured using Cellglo assay and luminescence in presence or absence of group A of molecules. […] 90% reduction of viral load was attained at 0.25 μM and no cell death was measured in presence of 150 μM of the tested compound, testifying of its lack of intrinsic cell toxicity. Ganciclovir the clinical gold standard in the treatment of HCMV has bee reported as active against the same strand at 1 to 3 μM.
(Damage to the host cells serves as the signal in cytopathic effect assays.)

Series [1] is described as follows: Cell toxicity in the HCMV assay (Cellglo, luminescence). The following applies: human, human fibroblast cell lines (HFF); HFF cells. Type of series: cell-based, human. How it is done:
as §1

Series [2] has as its system Human fibroblast cell lines (HFF). The description is as above. The format is cell-based. Particulars: 150 μM; HFF cells. How it is done:
as §1

A short description of series [3]: Cell toxicity in the HBV assay. Type of series: cell-based. The following applies: human, HepG-2 cells.
Another series concerns HBV/ayW1. Put plainly: Antiviral effect against HBV in HepG-2 cells. Type of series: cell-based. The following applies: Hepatitis B virus, HepG2; HBV/ayW1 in HepG-2 cells.

The EC50 is the concentration giving half of the maximal effect. One may read the EC90 as the concentration needed for an effect of 90%. One may read the CC50 as the concentration that lowers cell viability or growth by half. Low values mean harm at low concentration, high ones better tolerance by the cells. As to `CC(C)OC(=O)[C@H](C)NP(=O)(OC[C@H]1O[C@@H](n2ccc(N)nc2=O)[C@H](F)C1(C)CO)Oc1ccccc1` (stereo partly shown) [LCB-2187], in the series on HCMV/AD169 (Human betaherpesvirus 5, AD169, HFF, read-out: EC50 (μM), antiviral effect), the EC50 was under 0.05 µM. The molecule also had an EC90 in the series with HCMV/AD169 (Human betaherpesvirus 5, HCMV/AD169 in HFF cells) of 0.25 µM. In addition, the CC50 in series [1] was over 150 µM. In series [2], the “cell death in presence of the tested compound” value was “no cell death”.
On to `COc1nc(Cl)nc2c1ncn2[C@@H]1O[C@H](COP(=O)(N[C@@H](C)C(=O)OC(C)C)Oc2ccccc2)C(C)(Cc2nnn[nH]2)[C@H]1F` (stereo partly shown) [LCB-2147], for which the CC50 in series [3] is over 100 µM. Further, in the series with HBV/ayW1, the EC50 was found to be 4 µM and the EC90 was 16 µM.
